US10125139B2, “Pesticidally active polycyclic derivatives with sulfur substituted five-membered ring heterocycles” (Syngenta Participations AG, priority 2015, dated 2018)

Experiments:
Assay type in all cases: in vivo
[1] = tested on: Plutella xylostella (Diamond Back Moth); assay: Example B8: Plutella xylostella, artificial diet, L2 larvae; settings: Plutella xylostella, 120 h; application rate of 200 ppm; 5 days after infestation; L2 larvae; read-out: effect in at least one of the two categories (mortality or growth inhibition)
[2] = tested on: Tetranychus urticae (Two-Spotted Spider Mite); assay: Example B11: Tetranychus urticae feeding/contact activity, bean leaf discs; settings: foliar, 192 h
Method: Example B11: Tetranychus urticae (Two-Spotted Spider Mite): Feeding/Contact Activity
Bean leaf discs on agar in 24-well microtiter plates were sprayed with aqueous test solutions prepared from 10,000 ppm DMSO stock solutions. After drying the leaf discs were infested with a mite population of mixed ages. The samples were assessed for mortality on mixed population (mobile stages) 8 days after infestation.

[3] = tested on: Spodoptera littoralis (Egyptian Cotton Leaf Worm); assay: Example B10: Spodoptera littoralis systemic activity, lettuce grown on treated agar; settings: 144 h, test rate of 12.5 ppm, 6 days after infestation, read-out: effect in at least one of the three categories (mortality, anti-feeding, or growth inhibition)
Excerpt: Example B10: Spodoptera littoralis (Egyptian Cotton Leaf Worm) Systemic Activity
Test compounds were applied by pipette from 10,000 ppm DMSO stock solutions into 24-well plates and mixed with agar. Lettuce seeds were placed onto the agar and the multi well plate was closed by another plate which contained also agar. After 7 days the compound was absorbed by the roots and the lettuce grew into the lid plate. The lettuce leaves were then cut off into the lid plate. Spodoptera eggs were pipetted through a plastic stencil onto a humid gel blotting paper and the lid plate was closed with it. The samples were assessed for mortality, anti-feedant effect and growth inhibition in comparison to untreated samples 6 days after infestation. The following compounds gave an effect of at least 80% in at least one of the three categories (mortality, anti-feeding, or growth inhibition) at a test rate of 12.5 ppm: […]

[4] = tested on: Spodoptera littoralis (Egyptian Cotton Leaf Worm); assay: Example B9: Spodoptera littoralis, cotton leaf discs, L1 larvae; settings: Spodoptera littoralis, foliar, 72 h; application rate of 200 ppm; 3 days after infestation; L1 larvae
[5] = tested on: Myzus persicae (Green Peach Aphid); assay: Example B5: Myzus persicae feeding/contact activity, sunflower leaf discs; settings: foliar, 144 h, application rate of 200 ppm, 6 days after infestation
Method: Example B5: Myzus persicae (Green Peach Aphid): Feeding/Contact Activity
Sunflower leaf discs were placed onto agar in a 24-well microtiter plate and sprayed with aqueous test solutions prepared from 10,000 ppm DMSO stock solutions. After drying, the leaf discs were infested with an aphid population of mixed ages. The samples were assessed for mortality 6 days after infestation.

[6] = tested on: Diabrotica balteata (Corn Root Worm); assay: Example B2: Diabrotica balteata, sprayed maize sprouts, L2 larvae; settings: Diabrotica balteata, 96 h; application rate of 200 ppm; 4 days after infestation; L2 larvae; read-out: effect in at least one of the two categories (mortality or growth inhibition)
[7] = tested on: Euschistus heros (Neotropical Brown Stink Bug); assay: Example B3: Euschistus heros, sprayed soybean leaves, N2 nymphs; settings: 120 h, application rate of 200 ppm, 5 days after infestation, read-out: effect in at least one of the two categories (mortality or growth inhibition)
[8] = tested on: Frankliniella occidentalis (Western Flower thrips); assay: Example B4: Frankliniella occidentalis feeding/contact activity, sunflower leaf discs; settings: foliar, 168 h, application rate of 200 ppm, 7 days after infestation, population of mixed ages
Method: Example B4: Frankliniella occidentalis (Western Flower thrips): Feeding/Contact Activity
Sunflower leaf discs were placed on agar in 24-well microtiter plates and sprayed with aqueous test solutions prepared from 10,000 DMSO stock solutions. After drying the leaf discs were infested with a Frankliniella population of mixed ages. The samples were assessed for mortality 7 days after infestation.

CCS(=O)(=O)c1cc(I)sc1-c1nc2cc(C(F)(F)F)ncc2n1C [Example I-1, 2-(3-ethylsulfonyl-5-iodo-2-thienyl)-3-methyl-6-(trifluoromethyl)imidazo[4,5-c]pyridine]
≥ 80%: percent effect (mortality or growth inhibition) at 200 ppm [1] | mortality at 200 ppm [2] | percent effect (mortality, anti-feeding or growth inhibition) at 12.5 ppm [3] | percent control (mortality, anti-feedant effect or growth inhibition) at 200 ppm [4] | mortality at 200 ppm [5] | percent effect (mortality or growth inhibition) at 200 ppm [6]

CCSc1cc(-c2ccc(Cl)cc2)sc1-c1nc2cc(C(F)(F)F)ncc2n1C [Example P-6, 2-[5-(4-chlorophenyl)-3-ethylsulfanyl-2-thienyl]-3-methyl-6-(trifluoromethyl)imidazo[4,5-c]pyridine]
≥ 80%: percent effect (mortality or growth inhibition) at 200 ppm [1] | mortality at 200 ppm [2] | percent effect (mortality or growth inhibition) at 200 ppm [7] | percent control (mortality, anti-feedant effect or growth inhibition) at 200 ppm [4] | percent effect (mortality or growth inhibition) at 200 ppm [6] | mortality at 200 ppm [8]
